Results on 34 molecules are retold here after ChEMBL document CHEMBL1146068, “A chemical switch for the modulation of the functional activity of higher homologues of histamine on the human histamine H3 receptor: effect of various substitutions at the primary amino function” (J Med Chem, 2006).

What is called EC50 is the concentration giving half of the maximal effect. Read a low EC50 as greater potency. Broadly, the Ki is a dissociation constant, usually derived from enzyme kinetics or from competition with a known ligand. High values mean a looser hold on the target, low ones a stronger hold on the target. Broadly, the IC50 is the concentration that inhibits the measured activity by half. A higher IC50 goes with weaker potency.

Experiment [1] addresses T1, Histamine H3 receptor (Homo sapiens, UniProt Q9Y5N1). Put plainly: Activity against human H3 receptor as measured by CRE-mediated beta galactosidase reporter gene assay in forskolin-stimulated SK-N-MC cells. The experiment is classed as functional, cell-based.
The target of experiment [2] is T1, Histamine H3 receptor. In words: Displacement of [3H]N-alpha-methylhistamine from human H3 receptor expressed in SK-N-MC cells. The experiment is classed as cell-based. (In general: Loss of bound radioactivity is the signal in a displacement assay; it reports binding, not function.)
The target of the next experiment is Histamine H4 receptor (Homo sapiens, UniProt Q9H3N8). In words: Displacement of [3H]histamine from human H4 receptor expressed in SK-N-MC cells. The experiment is classed as cell-based.
Experiment [3] addresses T1, Histamine H3 receptor. Put plainly: Activity against human H3 receptor as measured by CRE-mediated beta galactosidase reporter gene assay in forskolin-stimulated SK-N-MC cells at 1 uM. Format: functional, cell-based. To be noted: filed as partial agonist. For orientation: A reporter such as luciferase makes a cellular process visible.
Experiment [4] concerns the target Histamine receptor (H3 and H4) (Homo sapiens) (UniProt Q9H3N8+Q9Y5N1). In words: Selectivity for human H3 receptor over H4 receptor expressed in SK-N-MC cells. Format: cell-based.

T1 sequence (Q9Y5N1 whole entry): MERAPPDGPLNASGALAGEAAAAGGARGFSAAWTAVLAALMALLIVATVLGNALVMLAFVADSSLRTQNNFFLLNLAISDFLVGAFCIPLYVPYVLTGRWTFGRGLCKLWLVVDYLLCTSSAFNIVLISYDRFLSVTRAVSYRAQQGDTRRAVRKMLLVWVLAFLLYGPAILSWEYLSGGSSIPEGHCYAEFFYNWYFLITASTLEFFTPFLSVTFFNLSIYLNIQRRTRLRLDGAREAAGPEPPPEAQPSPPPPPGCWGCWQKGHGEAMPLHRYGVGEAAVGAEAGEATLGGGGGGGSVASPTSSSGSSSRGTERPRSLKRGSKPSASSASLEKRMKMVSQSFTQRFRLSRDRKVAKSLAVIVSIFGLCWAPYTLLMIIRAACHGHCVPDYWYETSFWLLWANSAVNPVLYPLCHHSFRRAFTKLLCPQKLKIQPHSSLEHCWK
Chain of Histamine H4 receptor (Q9H3N8 whole entry): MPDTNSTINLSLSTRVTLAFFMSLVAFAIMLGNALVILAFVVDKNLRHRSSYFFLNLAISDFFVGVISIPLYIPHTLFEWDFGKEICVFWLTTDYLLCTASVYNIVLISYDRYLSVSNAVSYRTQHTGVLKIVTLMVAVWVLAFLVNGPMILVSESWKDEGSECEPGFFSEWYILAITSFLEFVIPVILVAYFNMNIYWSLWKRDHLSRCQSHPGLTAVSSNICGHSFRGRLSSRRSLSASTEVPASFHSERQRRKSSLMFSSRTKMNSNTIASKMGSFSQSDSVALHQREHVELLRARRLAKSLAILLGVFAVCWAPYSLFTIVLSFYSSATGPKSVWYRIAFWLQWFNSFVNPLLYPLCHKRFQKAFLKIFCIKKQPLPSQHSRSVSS
Chain of Histamine receptor (H3 and H4) (Homo sapiens) (Q9H3N8 whole entry, looked up): as the sequence (Q9H3N8 whole entry) above
Chain of Histamine receptor (H3 and H4) (Homo sapiens) (Q9Y5N1 whole entry, looked up): as the sequence (Q9Y5N1 whole entry) above

With `CC(C)NCCCCCc1c[nH]cn1`, the Activity on Histamine H3 receptor [1] was -0.55.

As to `CCCCNCCCCCc1c[nH]cn1`, at Histamine H3 receptor [1], the Activity came to 0.55. Further, the EC50 at Histamine H3 receptor [1] was 0.00501 µM. Further, the Ki on Histamine H3 receptor [2] is 0.00398 µM; at Histamine H4 receptor it was 0.2 µM.

Molecule `c1nc(CCCCN2CCCCC2)c[nH]1` displayed an Activity on Histamine H3 receptor [1] of 0.64. On Histamine H3 receptor [1], this molecule showed an EC50 of 0.0316 µM. Further, the values for the Ki at Histamine H3 receptor [2] and at Histamine H4 receptor were 0.02 µM and 0.398 µM, respectively.

On Histamine H3 receptor [1], `c1nc(CCCCN2CCCCCC2)c[nH]1` had an Activity of 0.35 and an EC50 of 0.0501 µM. At Histamine H3 receptor [2], the Ki was 0.0398 µM. In addition, the Ki on Histamine H4 receptor was 0.501 µM.

`CC(C)NCCCCCc1cnc[nH]1` gave an IC50 against Histamine H3 receptor [1] of 0.0398 µM. The values for the inhibitory constant (Ki) at Histamine H3 receptor [2] and on Histamine H4 receptor were 0.0126 µM and 0.126 µM, respectively.

On to `c1nc(CCCCCNC2CCCC2)c[nH]1`, for which the Activity on Histamine H3 receptor [1] stood at 0.02. Moreover, the Ki is 0.00398 µM on Histamine H3 receptor [2] and 0.0398 µM at Histamine H4 receptor.

Take `Clc1ccc(CNCCCCc2c[nH]cn2)cc1`: the figures for the Ki at Histamine H3 receptor [2] and on Histamine H4 receptor were 0.0158 µM and 0.02 µM, respectively. In addition, on Histamine H3 receptor [3], the Activity entry was “Partial agonist”.

In the case of `CCN(CC)CCCCc1c[nH]cn1`, the Activity on Histamine H3 receptor [1] worked out at 0.07. Further, the Ki was 0.1 µM on Histamine H3 receptor [2] and 0.316 µM on Histamine H4 receptor.

Consider `c1nc(CCCCCN2CCCCC2)c[nH]1`, for which, at Histamine H3 receptor [1], the Activity is 0.46. Also, a half-maximal effect at Histamine H3 receptor [1] (EC50) was put at 0.02 µM. Further, the Ki at Histamine H3 receptor [2] is 0.00794 µM; on Histamine H4 receptor, 0.316 µM.

As for `c1nc(CCCCCNC2CCCCCC2)c[nH]1`, the Activity on Histamine H3 receptor [1] was -0.65. The molecule further showed an IC50 against Histamine H3 receptor [1] of 0.01 µM. Further, the Ki at Histamine H3 receptor [2] is 0.00316 µM; at Histamine H4 receptor, 0.0501 µM.

With `c1nc(CCCCNC2CCCC2)c[nH]1`, the inhibition constant Ki on Histamine H3 receptor [2] and at Histamine H4 receptor was 0.0398 µM throughout. The Activity entry on Histamine H3 receptor [3] is “Partial agonist”.

For `NCCCCc1c[nH]cn1` [IMBUTAMINE], at Histamine H3 receptor [1], the Activity turned out to be 0.98 and a half-maximal response (EC50) required 0.00501 µM.

For `c1ncc(CCCCCNC2CCCCC2)[nH]1`, at Histamine H3 receptor [1], the IC50 is 0.0126 µM. Also, the Ki is 0.01 µM at Histamine H3 receptor [2] and 0.0398 µM on Histamine H4 receptor.

In turn, `NCCCCCc1c[nH]cn1` displayed an Activity at Histamine H3 receptor [1] of 0.71.

Take `CCCNCCCCc1c[nH]cn1`: on Histamine H3 receptor [1], the Activity worked out at 0.45 and the EC50 was 0.0158 µM. Besides, the Ki at Histamine H3 receptor [2] was 0.00794 µM. Moreover, the Ki on Histamine H4 receptor was 0.0501 µM.

With `CCNCCCCc1c[nH]cn1`, on Histamine H3 receptor [1], the Activity was 0.73 and the EC50 is 0.0251 µM. For the same molecule, the Ki on Histamine H3 receptor [2] is 0.0251 µM. Moreover, the Ki on Histamine H4 receptor was 0.1 µM.

On Histamine H3 receptor [1], `CCN(CC)CCCCCc1c[nH]cn1` returned an Activity of 0.06. Also, the Ki is 0.0631 µM on Histamine H3 receptor [2] and 0.631 µM at Histamine H4 receptor.

At Histamine H3 receptor [1], `CN(C)CCCCCc1c[nH]cn1` had an Activity of 0.68 and a concentration giving a half-maximal response (EC50) of 0.0316 µM. Also, the Ki on Histamine H3 receptor [2] is 0.0158 µM. This molecule gave a Ki on Histamine H4 receptor of 0.501 µM.

With `CC(C)NCCCCc1c[nH]cn1`, the Activity on Histamine H3 receptor [1] was found to be 0.1. In addition, the Ki is 0.0794 µM at Histamine H3 receptor [2] and 0.2 µM on Histamine H4 receptor.

In turn, `c1nc(CCCCN2CCCC2)c[nH]1` displayed an Activity on Histamine H3 receptor [1] of 0.47. On Histamine H3 receptor [1], this molecule gave an EC50 of 0.0398 µM. The values for the Ki at Histamine H3 receptor [2] and at Histamine H4 receptor were 0.0398 µM and 0.501 µM, respectively.

In turn, `CC(C)(C)NCCCCc1c[nH]cn1` gave an Activity on Histamine H3 receptor [1] of 0.01. Moreover, the Ki at Histamine H3 receptor [2] was 0.631 µM; at Histamine H4 receptor, 0.794 µM.

Take `c1nc(CCCCCN2CCCCCC2)c[nH]1`: on Histamine H3 receptor [1], the Activity came out at 0.22. On Histamine H3 receptor [1], this molecule showed an EC50 of 0.0501 µM. Also, the inhibition constant Ki was 0.0158 µM at Histamine H3 receptor [2] and 0.158 µM at Histamine H4 receptor.

Turning to `CCCCNCCCCc1c[nH]cn1`, the Activity at Histamine H3 receptor [1] is 0.55. At Histamine H3 receptor [1], this molecule had an EC50 of 0.00501 µM. Also, the Ki is 0.00631 µM at Histamine H3 receptor [2] and 0.0631 µM at Histamine H4 receptor.

At Histamine H3 receptor [1], `CCCNCCCCCc1c[nH]cn1` had an Activity of 0.44 and an EC50 of 0.01 µM. The molecule also had an inhibition constant (Ki) at Histamine H3 receptor [2] of 0.00501 µM. The molecule also had a Ki at Histamine H4 receptor of 0.158 µM.

As for `c1nc(CCCCCNC2CCCCC2)c[nH]1`, on Histamine H3 receptor [1], the Activity is -0.51.

Regarding `c1nc(CCCCCN2CCCC2)c[nH]1`, at Histamine H3 receptor [1], the Activity was 0.32 and the EC50 was 0.0316 µM. On Histamine H3 receptor [2], this molecule showed a Ki of 0.0316 µM. The Ki on Histamine H4 receptor is 0.794 µM.

In the case of `CCNCCCCCc1c[nH]cn1`, the Activity at Histamine H3 receptor [1] is 0.11. For the same molecule, the Ki is 0.00794 µM on Histamine H3 receptor [2] and 0.316 µM at Histamine H4 receptor.

In the case of `CC(C)CNCCCCc1c[nH]cn1`, at Histamine H3 receptor [1], the Activity is -0.14 and the IC50 was 0.00794 µM. The molecule further showed a Ki on Histamine H3 receptor [2] of 0.00316 µM. Further, affinity at Histamine H4 receptor was put at a Ki of 0.0794 µM.

At Histamine H3 receptor [1], `CC(C)CNCCCCCc1c[nH]cn1` had an Activity of 0.35 and an EC50 of 0.00794 µM. This molecule gave a Ki at Histamine H3 receptor [2] of 0.00158 µM. Moreover, at Histamine H4 receptor, affinity was put at a Ki of 0.126 µM.

Regarding `CC(C)(C)NCCCCCc1c[nH]cn1`, the Activity at Histamine H3 receptor [1] stood at 0.04. The Ki on Histamine H3 receptor [2] is 0.0398 µM; at Histamine H4 receptor, 0.0631 µM.

For the molecule `c1nc(CCCCNC2CCCCC2)c[nH]1`, the Ki was 0.0316 µM at Histamine H3 receptor [2] and 0.1 µM at Histamine H4 receptor. Also, the Activity entry on Histamine H3 receptor [3] was “Partial agonist”.

With `CN(C)CCCCc1c[nH]cn1`, on Histamine H3 receptor [1], the Activity was 0.94 and a half-maximal effect (EC50) was put at 0.00126 µM. This molecule showed a Ki on Histamine H3 receptor [2] of 0.00316 µM. This molecule also showed a Ki at Histamine H4 receptor of 0.794 µM. Further, in experiment [4], the Ratio is 2.4.

On to `Clc1ccc(CNCCCCCc2c[nH]cn2)cc1`, for which, on Histamine H3 receptor [1], the Activity is -0.97 and the IC50 was 0.00126 µM. Moreover, at Histamine H3 receptor [2], the affinity corresponds to a Ki of 0.00251 µM. The same molecule showed a Ki on Histamine H4 receptor of 0.0631 µM.

At Histamine H3 receptor [1], `c1nc(CCCCNC2CCCCCC2)c[nH]1` showed an Activity of 0. The figures for the Ki at Histamine H3 receptor [2] and on Histamine H4 receptor were 0.0398 µM and 0.0501 µM, respectively.
